Several values for one entry are separate records, joined by “and”; a condition that tells them apart may be missing. Equal values may be shown once.
Key:
fibroblasts NIH3T3 = experiment: Fibroblast cell-proliferation suppression (cell count); format: cell-based; conditions: NIH3T3, 1×10^−6 M and 3×10^−6 M, cell number every 24 hours, FIG. 1
Method: FIG. 1 is a graph showing a cell-proliferation suppressing action against fibroblast of the compound represented by the above general formula [1] and the like shown in Example 2.
Nine plates were prepared for each of control and compound 1 groups each having a concentration of 1×10^−6 M and a compound 1 group having a concentration of 3×10^−6 M (total of 27 plates). The number 4.4×10^5 of fibroblasts NIH3T3 were added to each of the 27 plates, and D-MEM culture solution added with 10% FBS (fetal bovine serum) was added thereto. Each of the controls was incubated with added water corresponding to the added amount of compound 1. The number of cells in 3 plates of each of the groups was measured every 24 hours, and the measured numbers were averaged to provide an average cell number per plate.

[1] = test system: human non-small-cell lung cancer cell line PC-14; experiment: PC-14 subcutaneous implant in nude mice, tumor volume; format: in vivo, female nude mice BALB/c nu/nu; design: key: relative tumor volume, 1st day = 100; volume = minor axis^2 × major axis; conditions: 1st day = 100
[2] = test system: SBC-3 (human small-cell lung cancer cell line); experiment: MTT assay, in vitro antitumor effect; format: cell-based; conditions: SBC-3, 96 hours incubation, average±error range of triple culture tests, read-out: amount of compound 1 required to achieve IC50
Text: (§1) (2) Verification of In Vitro Antitumor Effects on Various Human Cancer Cell Lines According to the MTT Assay Method.
(§2) Each single cell of a human non-small-cell lung cancer cell line PC-14, a human non-small-cell lung cancer cell line SBC-3, a human […] cell line MCF-7, a human non-small-cell ovarian cancer cell line SKOV3, a human leukemia cell line HL60 and a human colon cancer cell line WiDR was obtained by trypsinization or by using a cell scraper in RPMI 1640 medium to prepare a suspension containing 100 cells per 15 μl. The compound 1 as an anticancer agent was dissolved in dimethylsulfoxide and then the solution was added to the suspension to make the concentration of the compound fall within a range between 0.5 and 1 μM, and the resulting suspension was poured into a 96-perforated plate at 150 μl/well. This plate was maintained at a temperature of 37° C. under 5% of carbon dioxide and saturated vapor for 96 hours to incubate the suspension. After incubation, the incubated suspension was combined with 20 μl of MTT (3-(4,5-dimethylthiazol-2-yl)-2,5-diphenyltetrazoliumbromide) reagent dissolved in D-PBS (−) at a concentration of 5 mg/ml, and was further incubated at 37° C. for 4 hours. After the completion of incubation, the entire plate was centrifuged to discharge supernatant. Then, 200 μl of dimethyl sulfoxide was added to dissolve purple formazan which is created from yellow MTT by the action of dehydrogenase lying in mitochondria in the cancer cell, and the amount of the created formazan was determined by reading the absorbance at a wave length ranging from 562 to 630 nm with a multi-plate reader. Given that the average growth rate of a negative control is […] and the average growth rate of a positive control is 100%, a tumor-volume growth curve was plotted, and the concentration of compound 1 required for 50% of human cancer-cell proliferation suppression was calculated.
(§3) The values in Table 1 indicate each value of the concentration required for 50% of human cancer-cell proliferation suppression from the MTT assay in triple culture tests of independent cancer cells using compound 1 by average±error range (μM).

[3] = test system: HL60 (human leukemia cell line); experiment: MTT assay, in vitro antitumor effect; format: cell-based; conditions: HL60, 96 hours incubation, average±error range of triple culture tests, read-out: amount of compound 1 required to achieve IC50
Text: as §1, §2, §3

[4] = test system: SKOV3 (human ovarian cancer cell line); experiment: MTT assay, in vitro antitumor effect; format: cell-based; conditions: SKOV3, 96 hours incubation, average±error range of triple culture tests, read-out: amount of compound 1 required to achieve IC50
Text: as §1, §2, §3

[5] = test system: MCF-7 (human mammary cancer cell line); experiment: MTT assay, in vitro antitumor effect; format: cell-based; conditions: MCF-7, 96 hours incubation, average±error range of triple culture tests, read-out: amount of compound 1 required to achieve IC50
Text: as §1, §2, §3

[6] = test system: WiDR (human colon cancer cell line); experiment: MTT assay, in vitro antitumor effect; format: cell-based; conditions: 96 hours incubation, average±error range of triple culture tests, read-out: amount of compound 1 required to achieve IC50
Text: as §1, §2, §3

[7] = test system: human non-small-cell lung cancer cell line PC-14; experiment: MTT assay, in vitro antitumor effect; format: cell-based; conditions: PC-14, 96 hours incubation, average±error range of triple culture tests, read-out: amount of compound 1 required to achieve IC50
Text: as §1, §2, §3

various cancers = experiment: Overall carcinostatic effect, results of examples 1 to 3; conditions: overall statement
[8] = Entire body state and weight of tumor-bearing nude mice; format: in vivo, female nude mice BALB/c nu/nu; conditions: 3 and 5 mg/kg by tail injection, once a day on 7th, 8th, 10th, 11th days after implantation
Method: For six subjects of the group number 1, the compound 1 was administered by injecting from each tail of the nude mice on each of the 7th, 8th, 10th and 11th days after the implantation, at 3 mg of the compound 1 per kg of weight once a day. For six subjects of the group number 2, the compound 1 was administered by injecting from each tail of the nude mice on each of the 7th, 8th, 10th and 11th days after the implantation, at 5 mg of the compound 1 per kg of weight once a day. The subjects of the group number […] to be the controls were a group having no administration of the compound 1, and neither administration nor treatment of the compound 1 was performed on the controls. […] However, in the result of each tumor volume of the mice, a specific difference was found between the subjects of the group numbers 1 to 3. The measurement of the tumor volumes is shown in the following Table 2, and the average of the tumor volumes in each of the groups is shown in Table 3. In Tables 2 and 3, each size of the tumor volumes after the 2nd day is represented on condition that the size of the tumor volume on the 1st day is 100.

With `OC(CN1CCN(C(c2ccccc2)c2ccccc2)CC1)CN1CCC(O)(c2ccc(Cl)cc2)CC1` (stereo not shown) [compound 1, 1-[1-4-(diphenylmethyl)piperazinyl]-3-[1-{4-(4-chlorophenyl)-4-hydroxy}piperidinyl]-2-propanol] as the molecule, how does the “cell-proliferation suppressing action against fibroblast” value (fibroblasts NIH3T3) read?
Its value is “effectiveness to proliferative lesions”.

What about the “tumor volume, average (6 mice)” value ([1]; group No. 2 (3 mg/kg tail injection), 2 day) of the same molecule?
Its value is 89.79.

What about the “tumor volume, individual mice” value ([1]; group No. 2 (3 mg/kg tail injection), 2 day, 3 mg/kg) of the same molecule?
The value was 45.35 and 120.51 and 139.67 and 73.21 and 73.29 and 66.68.

What about the “tumor volume, average (6 mice)” value ([1]; group No. 2 (3 mg/kg tail injection), 3 day) of the same molecule?
The value was 67.01.

What about the “tumor volume, individual mice” value ([1]; group No. 2 (3 mg/kg tail injection), 3 day, 3 mg/kg) of the same molecule?
The value was 20.22 and 98.14 and 85.27 and 52.91 and 62.47 and 83.06.

And the “tumor volume, average (6 mice)” value ([1]; group No. 2 (3 mg/kg tail injection), 4 day)?
Its value is 68.38.

And the “tumor volume, individual mice” value ([1]; group No. 2 (3 mg/kg tail injection), 4 day, 3 mg/kg)?
The value was 46.17 and 80.18 and 105.01 and 42.19 and 31.02 and 85.73.

What about the “tumor volume, average (6 mice)” value ([1]; group No. 2 (3 mg/kg tail injection), 5 day) of the same molecule?
The value was 46.68.

What about the “tumor volume, individual mice” value ([1]; group No. 2 (3 mg/kg tail injection), 5 day, 3 mg/kg) of the same molecule?
Its value is 31.44 and 66.58 and 67.76 and 22.55 and 18.55 and 51.09.

And the “tumor volume, average (6 mice)” value ([1]; group No. 2 (3 mg/kg tail injection), 6 day)?
The value was 47.73.

What about the “tumor volume, individual mice” value ([1]; group No. 2 (3 mg/kg tail injection), 6 day, 3 mg/kg) of the same molecule?
The value was 30.93 and 122.90 and 55.16 and 0.00 and 10.11 and 51.30.

And the “tumor volume, average (6 mice)” value ([1]; group No. 2 (3 mg/kg tail injection), 7 day)?
Its value is 42.99.

And the “tumor volume, individual mice” value ([1]; group No. 2 (3 mg/kg tail injection), 7 day, 3 mg/kg)?
The value was 52.68 and 99.04 and 75.58 and 0.00 and 12.98 and 47.68.

What about the “tumor volume, average (6 mice)” value ([1]; group No. 2 (3 mg/kg tail injection), 8 day) of the same molecule?
The value was 58.33.

What about the “tumor volume, individual mice” value ([1]; group No. 2 (3 mg/kg tail injection), 8 day, 3 mg/kg) of the same molecule?
The value was 56.49 and 127.45 and 130.56 and 0.00 and 4.97 and 30.49.

And the “tumor volume, average (6 mice)” value ([1]; group No. 3 (5 mg/kg tail injection), 2 day)?
The value was 78.63.

And the “tumor volume, individual mice” value ([1]; group No. 3 (5 mg/kg tail injection), 2 day, 5 mg/kg)?
The value was 55.40 and 63.47 and 93.53 and 68.25 and 90.42 and 80.68.

And the “tumor volume, average (6 mice)” value ([1]; group No. 3 (5 mg/kg tail injection), 3 day)?
The value was 75.11.

What about the “tumor volume, individual mice” value ([1]; group No. 3 (5 mg/kg tail injection), 3 day, 5 mg/kg) of the same molecule?
Its value is 58.27 and 43.51 and 72.22 and 113.73 and 70.23 and 92.68.

What about the “tumor volume, average (6 mice)” value ([1]; group No. 3 (5 mg/kg tail injection), 4 day) of the same molecule?
Its value is 74.99.

What about the “tumor volume, individual mice” value ([1]; group No. 3 (5 mg/kg tail injection), 4 day, 5 mg/kg) of the same molecule?
The value was 79.34 and 40.73 and 83.65 and 123.79 and 36.86 and 84.55.

What about the “tumor volume, average (6 mice)” value ([1]; group No. 3 (5 mg/kg tail injection), 5 day) of the same molecule?
The value was 60.45.

And the “tumor volume, individual mice” value ([1]; group No. 3 (5 mg/kg tail injection), 5 day, 5 mg/kg)?
Its value is 47.44 and 40.65 and 62.95 and 103.32 and 28.95 and 79.20.

And the “tumor volume, average (6 mice)” value ([1]; group No. 3 (5 mg/kg tail injection), 6 day)?
Its value is 53.82.

And the “tumor volume, individual mice” value ([1]; group No. 3 (5 mg/kg tail injection), 6 day, 5 mg/kg)?
The value was 33.96 and 32.21 and 54.93 and 135.18 and 14.65 and 51.96.

What about the “tumor volume, average (6 mice)” value ([1]; group No. 3 (5 mg/kg tail injection), 7 day) of the same molecule?
Its value is 64.86.

What about the “tumor volume, individual mice” value ([1]; group No. 3 (5 mg/kg tail injection), 7 day, 5 mg/kg) of the same molecule?
The value was 34.07 and 36.27 and 86.76 and 129.59 and 17.36 and 85.12.

What about the “tumor volume, average (6 mice)” value ([1]; group No. 3 (5 mg/kg tail injection), 8 day) of the same molecule?
Its value is 62.63.

What about the “tumor volume, individual mice” value ([1]; group No. 3 (5 mg/kg tail injection), 8 day, 5 mg/kg) of the same molecule?
Its value is 47.99 and 15.80 and 102.87 and 140.33 and 7.22 and 61.54.

What about the IC50 [2] of the same molecule?
Its IC50 is 460 ± 30 nM.

And the IC50 [3]?
The IC50 was 1180 ± 50 nM.

And the IC50 [4]?
Its IC50 is 850 ± 20 nM.

What about the IC50 [5] of the same molecule?
The IC50 was 600 ± 80 nM.

What about the IC50 [6] of the same molecule?
The IC50 was 410 ± 30 nM.

What about the IC50 [7] of the same molecule?
The IC50 was 1020 ± 200 nM.

What about the “carcinostatic effect (results of examples 1 to 3)” value (various cancers) of the same molecule?
Its value is “high carcinostatic effect”.

And the “entire body state and weight of the mice versus control” value [8]?
The value was “substantially no difference”.

Reference: US6683083B1, “Anticancer agents” (priority 1999, dated 2004)
